Experimental data published in publication PMC4661406, “Uncovering the Mechanism of Aggregation of Human Transthyretin” (The Journal of Biological Chemistry, 2015).
Where a SMILES comes first, the peptide text is derived from it. [ ]: non-standard residue; d: D form. NMeE = CN[C@@H](CCC(=O)O)C(=O)O; NMeA = CN[C@@H](C)C(=O)O

Columns and labels:
[1] = test system: transthyretin amyloidosis; conditions: background statement, refs 16-18 cited in the next sentence; cited from earlier work
Text: Currently, there is no cure for transthyretin amyloidosis, and the treatment for familial cases of ATTR is liver transplantation. […] Several other therapeutics are currently in clinical trials, including other tetramer stabilizers such as diflunisal and RNAi therapies that cause a decrease in the production of TTR protein ([16][–][18]). Additional approaches are needed to prevent ATTR, and here we explore the use of peptide inhibitors that block aggregation of TTR.

monomeric variant MTTR = target: T1, monomeric variant MTTR (Homo sapiens, UniProt P02766, F107M/L130M); experiment: Binding of inhibitors to MTTR (unbound fraction by HPLC-MS); conditions: apparent affinity for all MTTR species in solution (binding to aggregated species not excluded), 0.5 mg/ml MTTR with increasing combined R4PAm and R4PTm, 37 °C, 18 h, 10 mM sodium acetate pH 7.4, 100 mM KCl, 10 mM EDTA, one-site specific binding (GraphPad Prism 6), read-out: apparent binding constant (KD)
T1 construct: made in house; host or cells: Escherichia coli Rosetta(DE3) pLysS, pET24(+) vector
Experimental: The soluble unbound fraction of inhibitors after incubation with the monomeric variant MTTR ([40]) was quantified by HPLC-MS. Samples were made as follows. Soluble TTR at a fixed concentration of 0.5 mg/ml was incubated at 37 °C for 18 h in 10 mM sodium acetate (pH 7.4), 100 mM KCl, 10 mM EDTA with increasing quantities of combined R4PAm and R4PTm. The aggregated fraction was removed by 0.22-μm filtration. The protein fraction containing soluble TTR and inhibitor-bound complexes was then removed by acid precipitation with 1% acetic acid and consecutive ultracentrifugation at 90,000 rpm for 30 min. Neither 0.22-μm filtration nor acid precipitation affected the concentration of the unbound soluble fraction of the peptide inhibitors (data not shown). The unbound soluble fraction of inhibitors was subjected to size exclusion HPLC followed by mass spectrometry. […]
(§1) FIGURE 6. […] A, midpoint temperatures of the thermal unfolding transition (Tm) of wild-type TTR at different conditions were determined by differential scanning calorimetry. […] The unbound fraction of inhibitors was analyzed by HPLC-MS. […] TTR aggregation (TTR agg.) was measured by absorbance at 400 nm with the initial protein amount normalized to 100%. mAU, milli-absorbance units; N.A., not applicable. […]

[2] = Fibril formation of TTR peptides in isolation (TEM); assay type: physicochemical; conditions: PBS pH 7.4, 37 °C, no shaking; TEM after 7 days (methods: incubated 2 weeks); peptide concentration 0.5-17 mM
Experimental: Following dissolution, samples were filtered through a 0.2-μm filter and incubated at 37 °C with no shaking for 2 weeks.
TEM was performed to visualize the fibril formation of TTR proteins and peptides. 5 μl of the sample was spotted onto freshly glow-discharged, carbon-coated EM grids (Ted Pella, Redding, CA). After 3 min of incubation, grids were rinsed three times with 5 μl of distilled water and then stained with 2% uranyl acetate for 2 min. Grids were examined with a T12 Quick CryoEM and CryoET (FEI) transmission electron microscope at an accelerating voltage of 120 kV. Digital images were recorded using a Gatan 2,048 × 2,048 charge-coupled device camera.
FIGURE 2. β-Strand F as an aggregation-driving segment in TTR suitable for aggregation inhibitor design. […] Histograms show percentage of TTR aggregation using WT TTR to normalize to 100%. The aggregation was measured by absorbance of the samples at 400 nm after 4 days of incubation at 37 °C and pH 4.3 with no shaking. […]
FIGURE 3. β-Strand H as a second aggregation-driving segment suitable as a target for aggregation inhibitor design. A, residue solvent-accessible surface area (ASA; Å^2) of TTR was calculated by Areaimol using the structure of WT TTR in three different conformations: tetramer (blue), dimer (black), and monomer (green). […]

WT TTR = experiment: Differential scanning calorimetry of WT TTR with T4 and/or inhibitors; assay type: binding, human; conditions: versus WT TTR alone (no T4 before addition); 5:1 molar ratio to TTR monomer; 3.5 M guanidinium chloride, pH 4.3
Experimental: Data were taken with a DSC-II differential scanning calorimeter (Calorimetry Sciences Corp., Lindon, UT). The midpoint temperatures of the thermal unfolding transition (Tm) of wild type and mutants were determined. Thermal denaturation of TTR was irreversible under our conditions ([1], [38]), and absolute thermodynamic parameters were not determined. […] The experiments were performed in 3.5 M guanidinium hydrochloride to depress melting below 100 °C; this guanidinium concentration also solubilized thyroxine. Protein samples were thawed on ice and filtered, and the concentration was measured by UV-visible absorption. Protein samples were diluted to 1 mg/ml in 3.5 M guanidinium chloride, 100 mM sodium acetate (pH 4.3), 100 mM potassium chloride, 1 mM EDTA. A volume of 700 μl of each protein sample was prepared in a 1.5-ml microcentrifuge tube and degassed for 5 min under vacuum while stirring. The reference cell contained only buffer components. […]
as §1

O=C(O)c1ccc2nc(-c3cc(Cl)cc(Cl)c3)oc2c1 [Tafamidis]
disease progression [1]: delays progression of the disease

CC(C)[C@H](NC(=O)[C@@H](NC(=O)[C@H](C)N(C)C(=O)[C@@H](NC(=O)[C@@H](NC(=O)[C@H](CO)NC(=O)[C@H](Cc1ccc(O)cc1)NC(=O)[C@H](CO)NC(=O)[C@H](Cc1ccc(O)cc1)NC(=O)[C@@H]1CCCN1C(=O)[C@H](CCCNC(=N)N)NC(=O)[C@H](CCCNC(=N)N)NC(=O)[C@H](CCCNC(=N)N)NC(=O)[C@@H](N)CCCNC(=N)N)[C@@H](C)O)[C@@H](C)O)C(C)C)C(=O)N[C@H](C(=O)N[C@@H](CC(N)=O)C(=O)O)[C@@H](C)O [R4PTm] (H-RRRRPYSYSTT[NMeA]VVTN-OH)
Kd (monomeric variant MTTR): 19.3 ± 6.7 µM

TAVVTN [6-residue TTR segment 119-124 from strand H]
fibril formation in isolation [2]: form fibrils in solution by self-aggregation

AEVVFT [6-residue TTR segment 91-96 from strand F]
fibril formation in isolation [2]: form fibrils in solution by self-aggregation

NC(Cc1cc(I)c(Oc2cc(I)c(O)c(I)c2)c(I)c1)C(=O)O (stereo not drawn) [T4, thyroxine]
increase in Tm of WT TTR on addition (WT TTR): 10.8 °C

CC(C)[C@H](NC(=O)[C@@H](NC(=O)[C@H](CCC(=O)O)N(C)C(=O)[C@H](C)NC(=O)[C@H](Cc1c[nH]cn1)NC(=O)[C@H](CCC(=O)O)NC(=O)[C@H](Cc1c[nH]cn1)NC(=O)[C@H](Cc1ccccc1)NC(=O)[C@@H]1CCCN1C(=O)[C@H](CCCNC(=N)N)NC(=O)[C@H](CCCNC(=N)N)NC(=O)[C@H](CCCNC(=N)N)NC(=O)[C@@H](N)CCCNC(=N)N)C(C)C)C(=O)N[C@@H](Cc1ccccc1)C(=O)N[C@H](C(=O)N[C@@H](C)C(=O)O)[C@@H](C)O [R4PAm] (H-RRRRPFHEHA[NMeE]VVFTA-OH)
Kd (monomeric variant MTTR): 17.9 ± 6.1 µM
